From a compilation of properties of binary mixtures (doi:10.1021/acs.jced.5b00338)

Assay: xn = mol fraction of the nth substance listed
Settings: 100 kPa

CC[n+]1ccn(C)c1.O=S(=O)([N-]S(=O)(=O)C(F)(F)F)C(F)(F)F + O=C1OCCO1
x2 = 0
Settings | electrical conductivity [S/m] | viscosity [mPa·s]
293.15 K | 0.73 | 41.6
298.15 K | 0.9 | 33.9
303.15 K | – | 27.3
313.15 K | 1.29 | 19.1
323.15 K | – | 14.4
333.15 K | 1.94 | 11.3
343.15 K | – | 8.3
353.15 K | 2.73 | 6.8
363.15 K | – | 5.6
373.15 K | – | 4.8

O=C1OCCO1 + CC[n+]1ccn(C)c1.O=S(=O)([N-]S(=O)(=O)C(F)(F)F)C(F)(F)F
Settings | electrical conductivity [S/m] | viscosity [mPa·s]
293.15 K, x1 = 0.33 | 1.02 | –
293.15 K, x1 = 0.5263 | – | 15.1
293.15 K, x1 = 0.53 | 1.24 | –
293.15 K, x1 = 0.7476 | – | 8.1
293.15 K, x1 = 0.75 | 1.57 | –
293.15 K, x1 = 0.82 | 1.52 | –
293.15 K, x1 = 0.87 | 1.44 | –
293.15 K, x1 = 0.91 | 1.33 | –
293.15 K, x1 = 0.95 | 1.03 | –
303.15 K, x1 = 0.8163 | – | 4.1
303.15 K, x1 = 0.9467 | – | 3
313.15 K, x1 = 0.33 | 1.68 | –
313.15 K, x1 = 0.5263 | – | 9
313.15 K, x1 = 0.53 | 1.97 | –
313.15 K, x1 = 0.66 | 2.32 | –
313.15 K, x1 = 0.7476 | – | 4.6
313.15 K, x1 = 0.75 | 2.34 | –
313.15 K, x1 = 0.8163 | – | 3.4
313.15 K, x1 = 0.82 | 2.23 | –
313.15 K, x1 = 0.87 | 2.05 | –
313.15 K, x1 = 0.91 | 1.86 | –
313.15 K, x1 = 0.9467 | – | 2.4
313.15 K, x1 = 0.98 | 0.85 | –
313.15 K, x1 = 1 | – | 1.81
323.15 K, x1 = 0.5263 | – | 7.1
323.15 K, x1 = 0.7476 | – | 3.9
323.15 K, x1 = 0.8163 | – | 2.8
323.15 K, x1 = 0.9467 | – | 2.1
323.15 K, x1 = 1 | – | 1.56
333.15 K, x1 = 0.5263 | – | 5.8
333.15 K, x1 = 0.53 | 2.71 | –
333.15 K, x1 = 0.66 | 3.2 | –
333.15 K, x1 = 0.7476 | – | 3.3
333.15 K, x1 = 0.75 | 3.18 | –
333.15 K, x1 = 0.82 | 2.98 | –
333.15 K, x1 = 0.87 | 2.7 | –
333.15 K, x1 = 0.91 | 2.45 | –
333.15 K, x1 = 0.9467 | – | 1.84
333.15 K, x1 = 0.98 | 1.1 | –
333.15 K, x1 = 1 | – | 1.4
343.15 K, x1 = 0.7476 | – | 2.7
343.15 K, x1 = 0.8163 | – | 1.97
343.15 K, x1 = 0.9467 | – | 1.48
353.15 K, x1 = 0.33 | 3.29 | –
353.15 K, x1 = 0.5263 | – | 4
353.15 K, x1 = 0.53 | 4.04 | –
353.15 K, x1 = 0.7476 | – | 2.3
353.15 K, x1 = 0.75 | 4.43 | –
353.15 K, x1 = 0.8163 | – | 1.74
353.15 K, x1 = 0.87 | 3.59 | –
353.15 K, x1 = 0.91 | 3.01 | –
353.15 K, x1 = 0.95 | 2.29 | –
353.15 K, x1 = 1 | – | 1.07
363.15 K, x1 = 0.5263 | – | 3.4
363.15 K, x1 = 0.7476 | – | 2.03
363.15 K, x1 = 0.9467 | – | 1.2
363.15 K, x1 = 1 | – | 0.96
373.15 K, x1 = 0.7476 | – | 1.83
373.15 K, x1 = 0.8163 | – | 1.4
373.15 K, x1 = 0.9467 | – | 1.08
383.15 K, x1 = 0.5263 | – | 2.7
383.15 K, x1 = 0.8163 | – | 1.29
383.15 K, x1 = 0.9467 | – | 0.97
383.15 K, x1 = 1 | – | 0.74
393.15 K, x1 = 0.5263 | – | 2.4
393.15 K, x1 = 0.8163 | – | 1.19
393.15 K, x1 = 1 | – | 0.71
